IC50 data for 33 compounds are collected here from patent publication US20230150970A1, “AMINOPYRIMIDINE DERIVATIVES AND THEIR USE AS ARYL HYDROCARBON RECEPTOR MODULATORS” (DONG-A ST CO., LTD., priority 2020, published 2023).

The target of this assay is T1, AhR (Homo sapiens, UniProt P35869).
T1 sequence (P35869 11-848): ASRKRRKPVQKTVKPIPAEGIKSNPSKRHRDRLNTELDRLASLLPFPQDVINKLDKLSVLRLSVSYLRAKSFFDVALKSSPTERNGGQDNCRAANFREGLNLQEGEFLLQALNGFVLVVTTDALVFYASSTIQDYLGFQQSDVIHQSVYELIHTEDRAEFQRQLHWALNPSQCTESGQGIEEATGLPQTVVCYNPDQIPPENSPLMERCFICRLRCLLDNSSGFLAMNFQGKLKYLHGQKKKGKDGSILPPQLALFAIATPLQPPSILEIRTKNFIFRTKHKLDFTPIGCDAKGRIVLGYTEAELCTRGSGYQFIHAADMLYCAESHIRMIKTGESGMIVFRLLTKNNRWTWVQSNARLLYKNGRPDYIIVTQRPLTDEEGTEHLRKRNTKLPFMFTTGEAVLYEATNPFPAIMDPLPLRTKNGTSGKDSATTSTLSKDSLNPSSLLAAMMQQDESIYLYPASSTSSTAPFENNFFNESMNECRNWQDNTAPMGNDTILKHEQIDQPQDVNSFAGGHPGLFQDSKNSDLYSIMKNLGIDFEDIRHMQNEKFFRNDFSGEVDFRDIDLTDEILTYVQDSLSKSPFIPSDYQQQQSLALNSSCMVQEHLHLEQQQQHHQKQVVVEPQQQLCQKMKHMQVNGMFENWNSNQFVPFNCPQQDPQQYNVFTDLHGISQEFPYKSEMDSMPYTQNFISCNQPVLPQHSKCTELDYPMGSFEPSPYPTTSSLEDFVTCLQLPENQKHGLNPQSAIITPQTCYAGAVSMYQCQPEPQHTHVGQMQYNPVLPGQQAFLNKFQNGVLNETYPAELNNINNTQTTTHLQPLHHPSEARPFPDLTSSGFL
As to the kind of experiment: In Vitro Assay 1: XRE-luciferase reporter assay, antagonism in human cell line (HepG2). The note with it: Assay 1: AhR-Luc Human Antagonism (IC50, nM), unmarked values: kynurenine 200 μM, 6 hours. (A reporter such as luciferase makes a cellular process visible.)

Each structure is given as a SMILES string. Some results are limits rather than exact numbers.

The term IC50 denotes the concentration needed to halve the response being measured. A higher IC50 goes with weaker potency in that assay. The compound `O[C@H]1CCN(c2cc(-c3ccc(F)nc3)nc(-c3cccnc3)n2)C1` [Example 300, (S)-1-(6-(6-fluoropyridin-3-yl)-2-(pyridin-3-yl)pyrimidin-4-yl)pyrrolidin-3-ol] registered an IC50 of 100 to 1000 nM. On to `CN(C)CCNc1ccc(-c2cc(N3CC[C@H](O)C3)nc(-c3cccnc3)n2)cn1` [Example 301, (S)-1-(6-(6-((2-(dimethylamino)ethyl)amino)pyridin-3-yl)-2-(pyridin-3-yl)pyrimidin-4-yl)pyrrolidin-3-ol], for which the IC50 is 100 to 1000 nM. With `CC1CN(c2ccc(-c3cc(N4CC[C@H](O)C4)nc(-c4cccnc4)n3)cn2)CC(C)O1` (stereo partly drawn) [Example 302, (3S)-1-(6-(6-(2,6-dimethylmorpholino)pyridin-3-yl)-2-(pyridin-3-yl)pyrimidin-4-yl)pyrrolidin-3-ol] the figure was above 1000 nM; with `O=S(=O)(CCO)N1CCN(c2cc(-c3ccc(Cl)cc3O)nc(-c3cccnc3)n2)CC1` [Example 303, 5-chloro-2-(6-(4-((2-hydroxyethyl)sulfonyl)piperazin-1-yl)-2-(pyridin-3-yl)pyrimidin-4-yl)phenol], below 10 nM.

`Oc1cc(Cl)ccc1-c1cc(N2CC[C@H](O)C2)nc(-c2cccnc2O)n1` [Example 304, (S)-3-(4-(4-chloro-2-hydroxyphenyl)-6-(3-hydroxypyrrolidin-1-yl)pyrimidin-2-yl)pyridin-2-ol] yielded an IC50 below 10 nM.

Compound `Nc1ccc(-c2cc(N3CC[C@H](O)C3)nc(-c3cccnc3)n2)cc1` [Example 305, (S)-1-(6-(4-aminophenyl)-2-(pyridin-3-yl)pyrimidin-4-yl)pyrrolidin-3-ol] showed an IC50 above 1000 nM.

For `C=CS(=O)(=O)N1CCN(c2cc(-c3ccc(Cl)cc3)nc(-c3cccnc3)n2)CC1` [Example 306, 4-(4-chlorophenyl)-2-(pyridin-3-yl)-6-(4-(vinylsulfonyl)piperazin-1-yl)pyrimidine], the IC50 lay in the range of 10 to 100 nM. As for `OCC1CCN(c2cc(-c3ccc(Cl)cc3Cl)nc(-c3cccnc3)n2)CC1` [Example 307, (1-(6-(2,4-dichlorophenyl)-2-(pyridin-3-yl)pyrimidin-4-yl)piperidin-4-yl)methanol], the IC50 lay within 10 to 100 nM. For `OC[C@@H]1CN(c2cc(-c3ccc(C(F)(F)F)cc3)nc(-c3cccnc3)n2)CCN1` [Example 308, (S)-(4-(2-(pyridin-3-yl)-6-(4-(trifluoromethyl)phenyl)pyrimidin-4-yl)piperazin-2-yl)methanol], the IC50 lay in the range of 100 to 1000 nM. With `OC[C@H]1CN(c2cc(-c3ccc(C(F)(F)F)cc3)nc(-c3cccnc3)n2)CCN1` [Example 309, (R)-(4-(2-(pyridin-3-yl)-6-(4-(trifluoromethyl)phenyl)pyrimidin-4-yl)piperazin-2-yl)methanol] the figure was 10 to 100 nM. In turn, `O=C(O)[C@@H]1CCN(c2cc(-c3ccc(C(F)(F)F)cc3)nc(-c3cccnc3)n2)C1` [Example 310, (R)-1-(2-(pyridin-3-yl)-6-(4-(trifluoromethyl)phenyl)pyrimidin-4-yl)pyrrolidine-3-carboxylic acid] came in with an IC50 of 100 to 1000 nM. Under `O=C(O)[C@@H]1CCN(c2cc(-c3ccc(Cl)cc3)nc(-c3cccnc3)n2)C1` [Example 311, (R)-1-(6-(4-chlorophenyl)-2-(pyridin-3-yl)pyrimidin-4-yl)pyrrolidine-3-carboxylic acid] stands 100 to 1000 nM; under `Cn1cc(-c2nc(-c3ccc(Cl)cc3)cc(N3CC[C@@H](C(=O)O)C3)n2)cn1` [Example 313, (R)-1-(6-(4-chlorophenyl)-2-(1-methyl-1H-pyrazol-4-yl)pyrimidin-4-yl)pyrrolidine-3-carboxylic acid], above 1000 nM; under `O[C@H]1CCN(c2cc(-c3ccc(N4CCOCC4)nc3)nc(-c3cccnc3)n2)C1` [Example 315, (S)-1-(6-(6-morpholinopyridin-3-yl)-2-(pyridin-3-yl)pyrimidin-4-yl)pyrrolidin-3-ol], below 10 nM. On to `Oc1cc(Cl)ccc1-c1cc(N2CC[C@H](O)C2)nc(-c2cccnc2)n1` [Example 316, (S)-1-(6-(4-chloro-2-hydroxyphenyl)-2-(pyridin-3-yl)pyrimidin-4-yl)pyrrolidin-3-ol], for which the IC50 is below 10 nM. As to `Oc1ncccc1-c1cc(N2CC[C@H](O)C2)nc(-c2cccnc2)n1` [Example 317, (S)-3-(6-(3-hydroxypyrrolidin-1-yl)-2-(pyridin-3-yl)pyrimidin-4-yl)pyridin-2-ol], the IC50 is above 1000 nM. The compound `OCC1CCN(c2cc(-c3ccc(F)nc3)nc(-c3cccnc3)n2)CC1` [Example 318, (1-(6-(6-fluoropyridin-3-yl)-2-(pyridin-3-yl)pyrimidin-4-yl)piperidin-4-yl)methanol] had an IC50 of 10 to 100 nM. With `OC1CN(c2cc(-c3ccc(Cl)cc3)nc(-c3cccnc3)n2)C1` [Example 319, 1-(6-(4-chlorophenyl)-2-(pyridin-3-yl)pyrimidin-4-yl)azetidin-3-ol] the figure was 10 to 100 nM; with `OCC1CN(c2cc(-c3ccc(Cl)cc3)nc(-c3cccnc3)n2)C1` [Example 320, (1-(6-(4-chlorophenyl)-2-(pyridin-3-yl)pyrimidin-4-yl)azetidin-3-yl)methanol], 10 to 100 nM; with `Cn1cc(-c2nc(-c3ccc(Cl)cc3)cc(N3CCN(S(C)(=O)=O)CC3)n2)cn1` [Example 321, 4-(4-chlorophenyl)-2-(1-methyl-1H-pyrazol-4-yl)-6-(4-(methylsulfonyl)piperazin-1-yl)pyrimidine], 100 to 1000 nM. Compound `Oc1cccc(-c2nc(-c3ccc(Cl)cc3)cc(N3CC[C@H](O)C3)n2)c1` [Example 322, (S)-1-(6-(4-chlorophenyl)-2-(3-hydroxyphenyl)pyrimidin-4-yl)pyrrolidin-3-ol] returned an IC50 above 1000 nM. The compound `O[C@H]1CCN(c2cc(-c3ccc(Cl)cc3)nc(-c3ccncc3)n2)C1` [Example 324, (S)-1-(6-(4-chlorophenyl)-2-(pyridin-4-yl)pyrimidin-4-yl)pyrrolidin-3-ol] showed an IC50 above 1000 nM. `CS(=O)(=O)N1CCN(c2cc(-c3ccc(Cl)cc3)nc(-c3cncc(F)c3)n2)CC1` [Example 325, 4-(4-chlorophenyl)-2-(5-fluoropyridin-3-yl)-6-(4-(methylsulfonyl)piperazin-1-yl)pyrimidine] showed an IC50 of 10 to 100 nM.

In turn, `CS(=O)(=O)C1CCN(c2cc(-c3ccc(Cl)cc3)nc(-c3cccnc3)n2)CC1` [Example 326, 4-(4-chlorophenyl)-6-(4-(methylsulfonyl)piperidin-1-yl)-2-(pyridin-3-yl)pyrimidine] registered an IC50 of 10 to 100 nM. Take `O=S(=O)(C1CC1)N1CCN(c2cc(-c3ccc(Cl)cc3)nc(-c3cccnc3)n2)CC1` [Example 328, 4-(4-chlorophenyl)-6-(4-(cyclopropylsulfonyl)piperazin-1-yl)-2-(pyridin-3-yl)pyrimidine]: the IC50 was in the range of 10 to 100 nM.

Compound `O[C@H]1CCN(c2cc(-c3ccc(Cl)cc3)nc(-c3ccnnc3)n2)C1` [Example 329, (S)-1-(6-(4-chlorophenyl)-2-(pyridazin-4-yl)pyrimidin-4-yl)pyrrolidin-3-ol] yielded a half-inhibitory concentration (IC50) of 100 to 1000 nM. With `OC1CCCN(c2cc(-c3ccc(Cl)cc3)nc(-c3cccnc3)n2)CC1` (stereo not drawn) [Example 330, 1-(6-(4-chlorophenyl)-2-(pyridin-3-yl)pyrimidin-4-yl)azepan-4-ol] the figure was 10 to 100 nM.

On to `CS(=O)(=O)N1CC2CC1CN2c1cc(-c2ccc(Cl)cc2)nc(-c2cccnc2)n1` (stereo not drawn) [Example 331, 2-(6-(4-chlorophenyl)-2-(pyridin-3-yl)pyrimidin-4-yl)-5-(methylsulfonyl)-2,5-diazabicyclo[2.2.1]heptane], for which the IC50 was below 10 nM. With `Cn1nnc(-c2nc(-c3ccc(Cl)cc3)cc(N3CC[C@H](O)C3)n2)n1` [Example 332, (S)-1-(6-(4-chlorophenyl)-2-(2-methyl-2H-tetrazol-5-yl)pyrimidin-4-yl)pyrrolidin-3-ol] the figure was above 1000 nM; with `Cn1nnc(-c2nc(-c3ccc(C(F)(F)F)cc3)cc(N3CC[C@H](O)C3)n2)n1` [Example 333, (S)-1-(2-(2-methyl-2H-tetrazol-5-yl)-6-(4-(trifluoromethyl)phenyl)pyrimidin-4-yl)pyrrolidin-3-ol], above 1000 nM; with `Cn1nnc(-c2nc(-c3ccc(Cl)cc3)cc(N3CCN(S(C)(=O)=O)CC3)n2)n1` [Example 334, 4-(4-chlorophenyl)-2-(2-methyl-2H-tetrazol-5-yl)-6-(4-(methylsulfonyl)piperazin-1-yl)pyrimidine], above 1000 nM. Consider `O=S(=O)(CCF)N1CCN(c2cc(-c3ccc(Cl)cc3)nc(-c3cccnc3)n2)CC1` [Example 335, 4-(4-chlorophenyl)-6-(4-((2-fluoroethyl)sulfonyl)piperazin-1-yl)-2-(pyridin-3-yl)pyrimidine], for which the IC50 is below 10 nM.

In turn, `O[C@H]1CCN(c2cc(-c3ccc(Cl)cc3)nc(-c3cnoc3)n2)C1` [Example 336, (S)-1-(6-(4-chlorophenyl)-2-(isoxazol-4-yl)pyrimidin-4-yl)pyrrolidin-3-ol] registered an IC50 of 100 to 1000 nM.
